Measurements: ChEMBL document CHEMBL2074167, “Sterol transport by the human breast cancer resistance protein (ABCG2) expressed in Lactococcus lactis” (J Biol Chem, 2003)

Legend:
[1] = target: T1, Broad substrate specificity ATP-binding cassette transporter ABCG2 (Homo sapiens, UniProt Q9UNQ0); assay: TP_TRANSPORTER: ATPase assay in membrane vesicle from BCRP-expressing Lactococcus lactis cells; assay type: functional, cell membranes, NZ9000
T1 sequence (Q9UNQ0 whole entry): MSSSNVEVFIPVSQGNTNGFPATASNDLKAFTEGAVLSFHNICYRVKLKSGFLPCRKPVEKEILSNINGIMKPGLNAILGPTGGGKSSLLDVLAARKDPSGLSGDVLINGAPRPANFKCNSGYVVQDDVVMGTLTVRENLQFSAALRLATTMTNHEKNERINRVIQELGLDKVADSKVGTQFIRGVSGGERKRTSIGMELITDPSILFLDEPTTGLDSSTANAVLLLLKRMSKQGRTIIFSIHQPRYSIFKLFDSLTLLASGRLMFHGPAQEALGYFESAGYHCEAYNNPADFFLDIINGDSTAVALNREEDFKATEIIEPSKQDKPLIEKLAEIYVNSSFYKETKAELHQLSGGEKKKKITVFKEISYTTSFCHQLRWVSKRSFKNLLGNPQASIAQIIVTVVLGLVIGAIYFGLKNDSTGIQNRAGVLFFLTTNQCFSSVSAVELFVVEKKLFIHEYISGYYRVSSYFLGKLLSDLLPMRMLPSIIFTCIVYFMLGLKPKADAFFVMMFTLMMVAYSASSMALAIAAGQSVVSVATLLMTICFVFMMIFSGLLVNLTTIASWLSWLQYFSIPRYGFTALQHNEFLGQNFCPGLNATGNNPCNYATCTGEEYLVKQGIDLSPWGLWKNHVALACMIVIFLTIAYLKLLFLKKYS

[2] = target: T1, Broad substrate specificity ATP-binding cassette transporter ABCG2; assay: TP_TRANSPORTER: uptake in BCRP-expressing Lactococcus lactis cells; assay type: functional, NZ9000
[3] = target: T1, Broad substrate specificity ATP-binding cassette transporter ABCG2; assay: TP_TRANSPORTER: growth inhibition in BCRP-expressing Lactococcus lactis cells; assay type: functional, NZ9000
[4] = target: T1, Broad substrate specificity ATP-binding cassette transporter ABCG2; assay: TP_TRANSPORTER: uptake in membrane vesicle from BCRP-expressing Lactococcus lactis cells; assay type: functional, cell membranes, NZ9000

| SMILES | Activity [1] | Activity [2] | further results |
| --- | --- | --- | --- |
| CC/C(=C(\c1ccccc1)c1ccc(OCCN(C)C)cc1)c1ccccc1 [TAMOXIFEN] | substrate [] |  |  |
| COC(=O)c1ccccc1-c1c2ccc(=N)cc-2oc2cc(N)ccc12.Cl [RHODAMINE123] |  | substrate [] |  |
| CC[n+]1c(-c2ccccc2)c2cc(N)ccc2c2ccc(N)cc21.[Br-] [HOMIDIUM BROMIDE] |  | substrate [] | Activity [3]: substrate [] |
| CC(=O)[C@H]1CC[C@H]2[C@@H]3CCC4=CC(=O)CC[C@]4(C)[C@H]3CC[C@]12C [PROGESTERONE] | substrate [] |  |  |
| C[C@]12CC[C@H]3[C@@H](CCC4=CC(=O)CC[C@@]43C)[C@@H]1CC[C@@H]2O [TESTOSTERONE] | substrate [] |  |  |
| CCOc1ccc(-c2nc3cc(-c4nc5cc(N6CCN(C)CC6)ccc5[nH]4)ccc3[nH]2)cc1 |  | substrate [] | Activity [4]: substrate [] |
| CC(C)CCC[C@@H](C)[C@H]1CC[C@H]2[C@@H]3CC=C4C[C@@H](O)CC[C@]4(C)[C@H]3CC[C@]12C [CHOLESTEROL] | substrate [] |  |  |
| COc1cccc2c1C(=O)c1c(O)c3c(c(O)c1C2=O)C[C@@](O)(C(C)=O)C[C@@H]3O[C@H]1C[C@H](N)[C@H](O)[C@H](C)O1 [DAUNORUBICIN] | substrate [] |  |  |
| C[C@]12CC[C@@H]3c4ccc(O)cc4CC[C@H]3[C@@H]1CC[C@@H]2O [ESTRADIOL] | substrate [] | substrate [] |  |
